Counter-ions that a name gives are not always drawn.

The experiment has as its system mice. Description: Neuropharmacological Assay (SmartCube): automated behavioral signature of compound-treated mice compared with a database of reference drug classes. Format: in vivo. The settings on record: for AG / AN / AP / AX / CE / HL / MS / PS / SH / AD / UK: SmartCube class probability, 3.0 mg/kg i.p., 15 min before test; for MED / minimal effective dose: minimal effective dose: dose having 45% or more total activity in SmartCube, i.p., if only one dose tested, that dose is shown; for minimal effective dose: Mus musculus, ip, read-out: MED. A digest of the protocol: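 Mice dosed i.p. 15 min before SmartCube testing, with compound in N-methyl-2-pyrrolidone/polyethylene glycol/propylene glycol. Video-captured behaviour is compared with a reference-drug signature database to give per-class probabilities, reported at 3.0 mg/kg. MED, from doses usually 0.3–10 mg/kg, is the lowest dose giving ≥45% total activity.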

With `CNC1CCc2c(C(F)(F)F)csc2C1` (single isomer, unassigned) [Compound 231, N-methyl-3-(trifluoromethyl)-4,5,6,7-tetrahydrobenzothiophen-6-amine hydrochloride], the AG entry is listed as “ND (^ <4%)”, the AN result is given as “ND (^ <4%)”, the AP result is on record as “ND (^ <4%)” and the AX entry is listed as “ND (^ <4%)”. The CE result is given as “ND (^ <4%)”, the HL entry is reported as “ND (^ <4%)”, the MS entry was “ND (^ <4%)” and the PS result was “ND (^ <4%)”. In addition, the SH result was “ND (^ <4%)” and the MED worked out at 3 mpk. Also, where the note is “hydrochloride, 3 mg/kg”, the AD entry was “ND (^ <4%)” and the UK result is listed as “+++ (≥49%)”.
Consider `CNC1CCc2scc(-c3ccccc3)c2C1` (single isomer, unassigned) [Compound 232, N-methyl-3-phenyl-4,5,6,7-tetrahydrobenzothiophen-5-amine hydrochloride], for which the minimal effective dose was over 3 mg/kg, the AD result is “ND (^ <4%)”, the AG entry is “ND (^ <4%)” and the AN result is recorded as “ND (^ <4%)”. Further, the AP result is listed as “ND (^ <4%)”, the AX result is “ND (^ <4%)”, the CE result is on record as “ND (^ <4%)” and the HL result was “ND (^ <4%)”. Moreover, the MS entry is “ND (^ <4%)”, the PS entry is “ND (^ <4%)” and the SH result is given as “ND (^ <4%)”. Moreover, under “hydrochloride, 3 mg/kg”, the UK result is listed as “+ (≥4%)”.
On to `CNC1CCc2scc(-c3ccccc3)c2C1` (single isomer, unassigned) [Compound 233, N-methyl-3-phenyl-4,5,6,7-tetrahydrobenzothiophen-5-amine hydrochloride], for which the AD result is listed as “ND (^ <4%)”, the AG result is given as “ND (^ <4%)”, the AN entry was “ND (^ <4%)” and the AP entry is given as “ND (^ <4%)”. For the same molecule, the AX result was “ND (^ <4%)”, the CE result is reported as “ND (^ <4%)”, the HL entry is on record as “ND (^ <4%)” and the MS entry is given as “ND (^ <4%)”. For the same molecule, the PS entry is recorded as “ND (^ <4%)”, the SH entry is on record as “ND (^ <4%)” and the MED is on record as over 3 mpk. In addition, where the note is “hydrochloride, 3 mg/kg”, the UK entry is reported as “ND (^ <4%)”.
In the case of `CNC1CCc2scc(CN)c2C1` (single isomer, unassigned) [Compound 236, 3-(aminomethyl)-N-methyl-4,5,6,7-tetrahydrobenzothiophen-5-amine dihydrochloride], the minimal effective dose is over 3 mg/kg, the AD result is recorded as “ND (^ <4%)”, the AG result is reported as “ND (^ <4%)” and the AN entry is “ND (^ <4%)”. The AP entry is recorded as “ND (^ <4%)”, the AX result is recorded as “ND (^ <4%)”, the CE result was “ND (^ <4%)” and the HL result is listed as “ND (^ <4%)”. Also, the MS result is “ND (^ <4%)”, the PS result is recorded as “ND (^ <4%)” and the SH entry is “ND (^ <4%)”. Besides, under “dihydrochloride, 3 mg/kg”, the UK result is listed as “ND (^ <4%)”.
With `CNC1CCc2scc(CN)c2C1` (single isomer, unassigned) [Compound 237, 3-(aminomethyl)-N-methyl-4,5,6,7-tetrahydrobenzothiophen-5-amine dihydrochloride], the AD entry was “ND (^ <4%)”, the AG entry is listed as “ND (^ <4%)”, the AN entry is “ND (^ <4%)” and the AP entry was “ND (^ <4%)”. The AX entry was “ND (^ <4%)”, the CE entry is recorded as “ND (^ <4%)”, the HL entry was “ND (^ <4%)” and the MS result is listed as “ND (^ <4%)”. In addition, the PS result is listed as “ND (^ <4%)”, the SH entry is “ND (^ <4%)” and the MED was over 3 mpk. The UK entry (dihydrochloride, 3 mg/kg) is listed as “+ (≥4%)”.
Take `CC1(N)CCc2c(C(F)(F)F)csc2C1.Cl` (single isomer, unassigned) [Compound 241, 6-methyl-3-(trifluoromethyl)-5,7-dihydro-4H-benzothiophen-6-amine hydrochloride]: the minimal effective dose was found to be 3 mg/kg, the AG result is “ND (^ <4%)”, the AN result is “ND (^ <4%)” and the AP entry was “ND (^ <4%)”. The AX entry is given as “ND (^ <4%)”, the CE result is “ND (^ <4%)”, the HL entry is “ND (^ <4%)” and the MS entry was “ND (^ <4%)”. For the same molecule, the PS entry was “ND (^ <4%)” and the SH entry is on record as “ND (^ <4%)”. Also, under “hydrochloride, 3 mg/kg”, the AD entry is “+ (≥4%)” and the UK entry was “++++ (≥74%)”.
On to `CC1(N)CCc2c(C(F)(F)F)csc2C1.Cl` (single isomer, unassigned) [Compound 242, 6-methyl-3-(trifluoromethyl)-5,7-dihydro-4H-benzothiophen-6-amine hydrochloride], for which the AG entry was “ND (^ <4%)”, the AN result is “ND (^ <4%)”, the AP result is given as “ND (^ <4%)” and the AX entry was “ND (^ <4%)”. In addition, the CE entry is reported as “ND (^ <4%)”, the HL entry is “ND (^ <4%)”, the MS entry is reported as “ND (^ <4%)” and the PS result was “ND (^ <4%)”. Moreover, the SH result is “ND (^ <4%)” and the MED was 3 mpk. Besides, where the note is “hydrochloride, 3 mg/kg”, the AD result was “+++ (≥49%)” and the UK entry is on record as “ND (^ <4%)”.
Regarding `NC1CCc2c(C(F)(F)F)csc2C1` (single isomer, unassigned) [Compound 243, 3-(trifluoromethyl)-4,5,6,7-tetrahydrobenzothiophen-6-amine hydrochloride], the minimal effective dose is 3 mg/kg, the AG result was “ND (^ <4%)”, the AN entry is listed as “ND (^ <4%)” and the AP result was “ND (^ <4%)”. The AX entry is “ND (^ <4%)”, the CE entry is reported as “ND (^ <4%)”, the HL entry is given as “ND (^ <4%)” and the MS result is recorded as “ND (^ <4%)”. The PS entry is recorded as “ND (^ <4%)”, the SH entry was “ND (^ <4%)” and the UK result was “ND (^ <4%)”. Where the note is “hydrochloride, 3 mg/kg”, the AD result is listed as “++ (≥24%)”.
For `NC1CCc2c(C(F)(F)F)csc2C1` (single isomer, unassigned) [Compound 244, 3-(trifluoromethyl)-4,5,6,7-tetrahydrobenzothiophen-6-amine hydrochloride], the AG entry is recorded as “ND (^ <4%)”, the AN result was “ND (^ <4%)”, the AP entry was “ND (^ <4%)” and the AX result is “ND (^ <4%)”. Moreover, the CE result is “ND (^ <4%)”, the HL result is recorded as “ND (^ <4%)”, the MS result is recorded as “ND (^ <4%)” and the PS result is on record as “ND (^ <4%)”. Moreover, the SH entry is “ND (^ <4%)” and the UK result was “ND (^ <4%)”. In addition, the AD entry (hydrochloride, 3 mg/kg) is reported as “++++ (≥74%)”. The molecule further gave an MED (hydrochloride) of under 3 mpk.
For the molecule `CNC1(C)CCc2cc(C(F)(F)F)sc2C1.Cl` (single isomer, unassigned) [Compound 245, N, 6-dimethyl-2-(trifluoromethyl)-5,7-dihydro-4H-benzothiophen-6-amine hydrochloride], the minimal effective dose turned out to be 3 mg/kg, the AG entry was “ND (^ <4%)”, the AN entry was “ND (^ <4%)” and the AX result is “ND (^ <4%)”. Further, the CE result is “ND (^ <4%)”, the HL entry is listed as “ND (^ <4%)”, the MS result is given as “ND (^ <4%)” and the PS result is “ND (^ <4%)”. Also, the SH result was “ND (^ <4%)”. Also, under “hydrochloride, 3 mg/kg”, the AD entry is given as “++ (≥24%)”, the AP result is listed as “ND (^ <4%)” and the UK result was “+ (≥4%)”.
As to `CNC1(C)CCc2cc(C(F)(F)F)sc2C1.Cl` (single isomer, unassigned) [Compound 246, N, 6-dimethyl-2-(trifluoromethyl)-5,7-dihydro-4H-benzothiophen-6-amine hydrochloride], the AG entry is given as “ND (^ <4%)”, the AN entry was “ND (^ <4%)”, the AX entry is “ND (^ <4%)” and the CE result is listed as “ND (^ <4%)”. Also, the HL entry is “ND (^ <4%)”, the MS result is “ND (^ <4%)”, the PS entry is given as “ND (^ <4%)” and the SH result is given as “ND (^ <4%)”. Moreover, the MED is 3 mpk. Also, under “hydrochloride, 3 mg/kg”, the AD entry is given as “+ (≥4%)”, the AP entry is “++ (≥24%)” and the UK entry is listed as “++ (≥24%)”.
With `CNC1CCc2scc(C3CC3)c2C1` (single isomer, unassigned) [Compound 249, 3-cyclopropyl-N-methyl-4,5,6,7-tetrahydrobenzothiophen-5-amine hydrochloride], the minimal effective dose was determined as 3 mg/kg, the AD entry was “ND (^ <4%)”, the AG entry is on record as “ND (^ <4%)” and the AN result is “ND (^ <4%)”. Besides, the CE result was “ND (^ <4%)”, the HL result is “ND (^ <4%)”, the MS result is listed as “ND (^ <4%)” and the PS entry is given as “ND (^ <4%)”. The SH entry is reported as “ND (^ <4%)”. For the setting “hydrochloride, 3 mg/kg”, the AP entry is reported as “ND (^ <4%)”, the AX result is reported as “ND (^ <4%)” and the UK result is listed as “++ (≥24%)”.

(Values after patent publication US20260274814A1, “THIENYL COMPOUNDS FOR THE TREATMENT OF A CENTRAL NERVOUS SYSTEM DISEASE OR DISORDER” (Coreterra Therapeutics, Inc., priority 2023, published 2026).)
